Source: the supplement of paper PMC10307832

How the values were obtained:
Assay in all cases: relative viability (nuclei count vs DMSO), 5 days (fraction); higher = more cells survive
[1] = compound: CN(C)C(=N)NC(=N)N [Metformin] + COc1cccc2cc(-c3nc([C@H]4CC[C@H](C(=O)O)CC4)n4ncnc(N)c34)[nH]c12 [OSI-027] (partner 0.5 µM)
Method in brief: (§1)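 Each reported value is a median over duplicate plates. It expresses relative viability: treated-well nuclei count divided by vehicle-well nuclei count. Lung cancer cell lines in 1536-well plates were dosed by pin tool a day after seeding, alone with one drug or with a fixed anchor-drug dose plus five library-drug doses (not always all listed) in √10 steps, and nuclei were counted after 5 days.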

[2] = compound: CN(C)C(=N)NC(=N)N [Metformin] + O=C(CCCCCCC(=O)Nc1ccccc1)NO [Vorinostat] (partner 1 µM)
Method in brief: as §1

[3] = compound: N#CC1(c2ccc(NC(=O)c3cccnc3NCc3ccncc3)cc2)CCCC1 [Apatinib] + CC1(C)CCC(c2ccc(Cl)cc2)=C(CN2CCN(c3ccc(C(=O)NS(=O)(=O)c4ccc(N[C@H](CCN5CCOCC5)CSc5ccccc5)c(S(=O)(=O)C(F)(F)F)c4)cc3)CC2)C1 [Navitoclax] (partner 0.5 µM)
Method in brief: as §1

[4] = compound: N#CC1(c2ccc(NC(=O)c3cccnc3NCc3ccncc3)cc2)CCCC1 [Apatinib] + C[C@]1(O)C[C@@H](c2nc(-c3ccc4ccc(-c5ccccc5)nc4c3)c3c(N)nccn32)C1 [Linsitinib] (partner 1 µM)
Method in brief: as §1

Row | Cell Line | relative viability ([1]; first compound 10 µM) | relative viability ([1]; first compound 31.62 µM) | relative viability ([1]; first compound 100 µM) | relative viability ([1]; first compound 316.23 µM) | relative viability ([1]; first compound 1000 µM) | relative viability ([2]; first compound 10 µM) | relative viability ([2]; first compound 31.62 µM) | relative viability ([2]; first compound 100 µM) | relative viability ([2]; first compound 316.23 µM) | relative viability ([2]; first compound 1000 µM) | relative viability ([3]; first compound 0.08 µM) | relative viability ([3]; first compound 0.253 µM) | relative viability ([3]; first compound 0.8 µM) | relative viability ([3]; first compound 2.53 µM) | relative viability ([3]; first compound 8 µM) | relative viability ([4]; first compound 0.08 µM) | relative viability ([4]; first compound 0.253 µM) | relative viability ([4]; first compound 0.8 µM) | relative viability ([4]; first compound 2.53 µM) | relative viability ([4]; first compound 8 µM)
1 | RERF-LC-KJ | 0.521 | 0.503 | 0.492 | 0.394 | 0.415 | 0.564 | 0.745 | 0.634 | 0.534 | 0.612 | 0.931 | 1.04 | 0.874 | 0.557 | 0.997 | 0.908 | 0.908 | 0.821 | 0.845 | 0.757
2 | NCI-H647 | 0.721 | 0.853 | 0.538 | 0.485 | 0.924 | 0.705 | 0.5 | 0.64 | 0.56 | 0.588 | 1.3 | 1.29 | 1.04 | 0.975 | 0.779 | 1.32 | 1.18 | 1.01 | 1.04 | 1.02
3 | NCI-H1395 | 0.74 | 0.899 | 0.669 | 0.693 | 0.75 | 0.855 | 1.24 | 0.819 | 0.868 | 0.414 | 1.1 | 1.13 | 1.09 | 1.02 | 0.957 | 1.19 | 1.08 | 1.16 | 1.07 | 0.847
4 | NCI-H522 | 0.796 | 0.752 | 0.708 | 0.744 | 0.667 | 1.15 | 1.11 | 0.923 | 0.99 | 1.03 | – | – | – | – | – | – | – | – | – | –
5 | NCI-H322M | 0.54 | 0.597 | 0.604 | 0.457 | 0.46 | 0.946 | 0.861 | 0.945 | 0.865 | 0.702 | 1.28 | 1.11 | 1.25 | 1.32 | 1.12 | 1.13 | 0.878 | 0.978 | 0.974 | 0.842
6 | H3255 | 0.477 | 0.654 | 0.623 | 0.457 | 0.611 | 0.627 | 0.921 | 0.758 | 0.811 | 0.929 | 0.512 | 0.62 | 0.34 | 0.52 | 0.607 | 1.17 | 0.819 | 0.954 | 0.896 | 0.836
7 | 201T | – | 0.955 | 0.875 | 0.881 | 0.517 | – | 1.02 | 0.972 | 0.98 | 1.03 | 1.2 | 1.24 | 1.19 | 1.27 | 1.18 | 1.03 | 1.02 | 1.09 | 1.05 | 1.04
8 | SW 1573 | 0.68 | 0.756 | 0.611 | 0.4 | 0.419 | 0.724 | 0.722 | 0.68 | 0.701 | 0.755 | 1.01 | 1 | 1.19 | 0.927 | 0.885 | 0.898 | 0.784 | 0.979 | 0.885 | 0.854
9 | NCI-H2170 | 0.566 | 0.52 | 0.683 | 0.673 | 0.711 | 0.55 | 0.777 | 0.79 | 0.813 | 0.795 | 0.617 | 0.646 | 0.568 | 0.599 | 0.498 | – | – | – | – | –
10 | NCI-H1993 | 0.587 | 0.603 | 0.554 | 0.507 | 0.514 | 0.585 | 0.6 | 0.646 | 0.608 | 0.921 | 1.13 | 0.822 | 0.813 | 0.688 | 0.772 | 0.751 | 0.648 | 0.742 | 0.715 | 0.775
11 | NCI-H1755 | 0.614 | 0.729 | 0.701 | 0.636 | 0.579 | 0.579 | 0.629 | 0.711 | 0.657 | 0.763 | 1 | 0.968 | 0.963 | 0.952 | 0.865 | 0.976 | 0.97 | 0.964 | 0.977 | 0.709
12 | NCI-H1437 | 1.21 | 1.23 | 1.06 | 1 | 1.04 | 1.1 | 1.34 | 0.993 | 0.961 | 1.01 | 1.12 | 1.14 | 0.939 | 0.928 | 0.776 | 1.03 | 1.06 | 0.879 | 0.653 | 0.475
13 | EPLC-272H | 0.294 | 0.269 | 0.262 | 0.293 | 0.335 | 0.529 | 0.352 | 0.383 | 0.4 | 0.579 | 1.06 | 1.05 | 0.961 | 1.04 | 0.731 | 1.19 | 1.07 | 1.23 | 1.23 | 1.12
14 | LK-2 | 0.194 | 0.169 | 0.199 | 0.195 | 0.209 | 0.232 | 0.264 | 0.273 | 0.339 | 0.397 | 0.879 | 0.857 | 0.885 | 0.769 | 0.634 | 0.602 | 0.356 | 0.631 | 0.503 | 0.399
15 | NCI-H1975 | 0.96 | 1.08 | 0.748 | 0.891 | 0.949 | 0.688 | 0.738 | 0.705 | 0.645 | 0.729 | 1.19 | 1.15 | 1.04 | 0.869 | 0.852 | 0.988 | 0.954 | 0.931 | 0.854 | 0.888
16 | HARA | – | 0.6 | 0.529 | 0.47 | 0.515 | 0.419 | 0.587 | 0.39 | 0.382 | 0.445 | 1.15 | 1.18 | 1.1 | 1.13 | 1.07 | 1.04 | 0.983 | 0.994 | 0.995 | 0.882
17 | SK-MES-1 | 0.446 | 0.551 | 0.532 | 0.432 | 0.454 | 0.839 | 1.03 | 1.11 | 0.919 | 0.99 | 1.25 | 1.17 | 1.24 | 1.14 | 0.965 | 1.13 | 0.975 | 1.1 | 1.07 | 0.942
